Measurements reported in ChEMBL document CHEMBL3885881, “DrugMatrix”.

Species on record: Rattus norvegicus
Experiment: DrugMatrix - Regimen: Daily Repeat
Type: toxicity, organism-based, Sprague-Dawley
Set-up: regimen Daily Repeat, gender Male, age 6-8 weeks
Details: in vivo, po, route oral GAVAGE, vehicle 100 % SALINE; for ABSOLUTE BASOPHIL / ABSOLUTE EOSINOPHIL / ABSOLUTE LYMPHOCYTE / ABSOLUTE MONOCYTE / ABSOLUTE SEGMENTED NEUTROPHIL / BASOPHIL / EOSINOPHIL / ERYTHROCYTE COUNT / HEMATOCRIT / HEMOGLOBIN / LEUKOCYTE COUNT / LYMPHOCYTE / MEAN CORPUSCULAR HEMOGLOBIN / MEAN CORPUSCULAR HEMOGLOBIN CONCENTRATION / MEAN CORPUSCULAR VOLUME / MONOCYTE / NEUTROPHIL / NUCLEATED RED BLOOD CELLS / PLATELET COUNT: tissue Blood; for ALANINE AMINOTRANSFERASE / ALBUMIN / ALKALINE PHOSPHATASE / ASPARTATE AMINOTRANSFERASE / BLOOD UREA NITROGEN / CARBON DIOXIDE / CHLORIDE / CHOLESTEROL / CREATINE PHOSPHOKINASE / CREATININE / GLUCOSE / LACTATE DEHYDROGENASE / LIPASE / PHOSPHORUS / POTASSIUM / SODIUM / TOTAL BILIRUBIN / TOTAL PROTEIN / URIC ACID: tissue Plasma
[1] = 0 mg/kg, 72 h, dose level Control, time 3 day
[2] = 0 mg/kg, 120 h, dose level Control, time 5 day
[3] = 29 mg/kg, 72 h, dose level Low, time 3 day

Cc1ccnc2c1NC(=O)c1cccnc1N2C1CC1 [NEVIRAPINE]
ABSOLUTE BASOPHIL [1]: 0 CELLS/uL
ABSOLUTE EOSINOPHIL [1]: 37 CELLS/uL
ABSOLUTE LYMPHOCYTE [1]: 12359.33 CELLS/uL
ABSOLUTE MONOCYTE [1]: 122.67 CELLS/uL
ABSOLUTE SEGMENTED NEUTROPHIL [1]: 847.67 CELLS/uL
BASOPHIL [1]: 0%
EOSINOPHIL [1]: 0.33%
ERYTHROCYTE COUNT [1]: 5.75 x10E6/uL
HEMATOCRIT [1]: 36.08%
HEMOGLOBIN [1]: 14.07 G/DL
LEUKOCYTE COUNT [1]: 13.37 x10E3/uL
LYMPHOCYTE [1]: 92.5%
MEAN CORPUSCULAR HEMOGLOBIN [1]: 24.47 pg
MEAN CORPUSCULAR HEMOGLOBIN CONCENTRATION [1]: 38.98 G/DL
MEAN CORPUSCULAR VOLUME [1]: 62.78 fL
MONOCYTE [1]: 1%
NEUTROPHIL [1]: 6.17%
NUCLEATED RED BLOOD CELLS [1]: 0.17 /100WBC
PLATELET COUNT [1]: 1202.17 x10E3/uL
ALANINE AMINOTRANSFERASE [1]: 50.67 u/L
ALBUMIN [1]: 4.13 G/DL
ALKALINE PHOSPHATASE [1]: 356.33 u/L
ASPARTATE AMINOTRANSFERASE [1]: 78.17 u/L
BLOOD UREA NITROGEN [1]: 14.17 mg/dL
CARBON DIOXIDE [1]: 31.33 mmol/L
CHLORIDE [1]: 98.5 MEQ/L
CHOLESTEROL [1]: 76.5 mg/dL
CREATINE PHOSPHOKINASE [1]: 248.33 u/L
CREATININE [1]: 0.2 mg/dL
GLUCOSE [1]: 144 mg/dL
LACTATE DEHYDROGENASE [1]: 107 u/L
LIPASE [1]: 9.83 u/L
PHOSPHORUS [1]: 12.8 mg/dL
POTASSIUM [1]: 6.75 MEQ/L
SODIUM [1]: 142 MEQ/L
TOTAL BILIRUBIN [1]: 0.18 mg/dL
TOTAL PROTEIN [1]: 5.98 G/DL
URIC ACID [1]: 1.42 mg/dL
ABSOLUTE BASOPHIL [2]: 0 CELLS/uL
ABSOLUTE EOSINOPHIL [2]: 0 CELLS/uL
ABSOLUTE LYMPHOCYTE [2]: 8681.17 CELLS/uL
ABSOLUTE MONOCYTE [2]: 79.83 CELLS/uL
ABSOLUTE SEGMENTED NEUTROPHIL [2]: 689 CELLS/uL
BASOPHIL [2]: 0%
EOSINOPHIL [2]: 0%
ERYTHROCYTE COUNT [2]: 5.49 x10E6/uL
HEMATOCRIT [2]: 33.55%
HEMOGLOBIN [2]: 13.1 G/DL
LEUKOCYTE COUNT [2]: 9.45 x10E3/uL
LYMPHOCYTE [2]: 92.33%
MEAN CORPUSCULAR HEMOGLOBIN [2]: 23.92 pg
MEAN CORPUSCULAR HEMOGLOBIN CONCENTRATION [2]: 39.07 G/DL
MEAN CORPUSCULAR VOLUME [2]: 61.22 fL
MONOCYTE [2]: 0.67%
NEUTROPHIL [2]: 7%
NUCLEATED RED BLOOD CELLS [2]: 0.17 /100WBC
PLATELET COUNT [2]: 1001.17 x10E3/uL
ALANINE AMINOTRANSFERASE [2]: 49.33 u/L
ALBUMIN [2]: 4.07 G/DL
ALKALINE PHOSPHATASE [2]: 300.33 u/L
ASPARTATE AMINOTRANSFERASE [2]: 83.5 u/L
BLOOD UREA NITROGEN [2]: 16 mg/dL
CARBON DIOXIDE [2]: 29.67 mmol/L
CHLORIDE [2]: 100.5 MEQ/L
CHOLESTEROL [2]: 74.33 mg/dL
CREATINE PHOSPHOKINASE [2]: 489.67 u/L
CREATININE [2]: 0.35 mg/dL
GLUCOSE [2]: 151 mg/dL
LACTATE DEHYDROGENASE [2]: 133.67 u/L
LIPASE [2]: 11.17 u/L
PHOSPHORUS [2]: 10.88 mg/dL
POTASSIUM [2]: 5.5 MEQ/L
SODIUM [2]: 145.7 MEQ/L
TOTAL BILIRUBIN [2]: 0.2 mg/dL
TOTAL PROTEIN [2]: 6.05 G/DL
URIC ACID [2]: 0.68 mg/dL
ABSOLUTE BASOPHIL [3]: 0 CELLS/uL
ABSOLUTE EOSINOPHIL [3]: 29.67 CELLS/uL
ABSOLUTE LYMPHOCYTE [3]: 8345.33 CELLS/uL
ABSOLUTE MONOCYTE [3]: 0 CELLS/uL
ABSOLUTE SEGMENTED NEUTROPHIL [3]: 725 CELLS/uL
BASOPHIL [3]: 0%
EOSINOPHIL [3]: 0.33%
ERYTHROCYTE COUNT [3]: 5.42 x10E6/uL
HEMATOCRIT [3]: 33.9%
HEMOGLOBIN [3]: 13.2 G/DL
LEUKOCYTE COUNT [3]: 9.1 x10E3/uL
LYMPHOCYTE [3]: 91.67%
MEAN CORPUSCULAR HEMOGLOBIN [3]: 24.43 pg
MEAN CORPUSCULAR HEMOGLOBIN CONCENTRATION [3]: 38.93 G/DL
MEAN CORPUSCULAR VOLUME [3]: 62.7 fL
MONOCYTE [3]: 0%
NEUTROPHIL [3]: 8%
NUCLEATED RED BLOOD CELLS [3]: 0 /100WBC
PLATELET COUNT [3]: 673.67 x10E3/uL
ALANINE AMINOTRANSFERASE [3]: 74.33 u/L
ALBUMIN [3]: 4.3 G/DL
ALKALINE PHOSPHATASE [3]: 343.67 u/L
ASPARTATE AMINOTRANSFERASE [3]: 123.67 u/L
BLOOD UREA NITROGEN [3]: 10.33 mg/dL
CARBON DIOXIDE [3]: 28.33 mmol/L
CHOLESTEROL [3]: 68.67 mg/dL
CREATINE PHOSPHOKINASE [3]: 179.33 u/L
CREATININE [3]: 0.43 mg/dL
GLUCOSE [3]: 142.67 mg/dL
LACTATE DEHYDROGENASE [3]: 65.33 u/L
LIPASE [3]: 15.67 u/L
PHOSPHORUS [3]: 10.83 mg/dL
TOTAL BILIRUBIN [3]: 0.13 mg/dL
TOTAL PROTEIN [3]: 5.03 G/DL
URIC ACID [3]: 0.37 mg/dL
ABSOLUTE BASOPHIL (29 mg/kg, 120 h, dose level Low, time 5 day): 0 CELLS/uL
